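Cells were grown in 96-well plates and exposed to each compound for 48 hours at five concentrations; endpoints were interpolated linearly between bracketing concentrations, or set to the highest concentration if not reached. GI50 is the concentration that inhibits growth by half. TGI denotes the concentration required for complete inhibition of growth.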 *1 amine or outer side, *2 acyl side, *3 side chain or, on linkers, in order; H or OH if unused. Where a SMILES comes first, the peptide text is derived from it. Bridges are numbered along the chain shown (N, C = ends). [ ]: non-standard residue; d: D form. The star is where a group is joined. Phe(3-F) = N[C@@H](Cc1cccc(F)c1)C(=O)O; Pro(4R-Me) = C[C@H]1CN[C@H](C(=O)O)C1; aThr = C[C@H](O)[C@H](N)C(=O)O; Pip = O=C(O)[C@@H]1CCCCN1; X8 = CCc1ccc(N*)c(F)c1; CO = O=C([*:1])[*:2]
What follows are molecules tested on MDA-MB-468 breast (assay: NCI tumour cell line growth inhibition, 48 h).

Point of comparison: `O=C1Nc2ccc(-c3cccnc3)cc2/C1=C/c1cc(Br)c(O)c(Br)c1`, GI50 6.02 µM. Against it:
- O=C(Nc1nc2ccc(S(=O)(=O)Nc3ccc(C4(C(F)(F)F)CC4)cc3)cc2[nH]1)c1cnccn1 — 12-fold lower, 0.515 µM
- CCc1ccc(NC(=O)N[C@@H](Cc2cccc(F)c2)C(=O)N[C@@H]2C(=O)N3CCC[C@H]3C(=O)N3CCCC[C@H]3C(=O)N[C@@H](C)C(=O)N3C[C@H](C)C[C@H]3C(=O)O[C@H]2C)c(F)c1 ({X8-CO}-[Phe(3-F)][aThr]P[Pip]A[Pro(4R-Me)]; ester 2-C) — 47-fold lower, 0.129 µM
- CCc1ccc(Oc2c(-c3ccc(OCc4ccc(Cl)cc4)cc3O)nn(C)c2C(F)(F)F)cc1 — 18-fold lower, 0.337 µM
- CC[n+]1c(-c2ccccc2)c2cc(N)ccc2c2ccc(N)cc21 — 38-fold lower, 0.16 µM
- NC(=O)c1nc(-c2c(F)cccc2Cl)oc1Nc1ccc(C(=O)N2CCOCC2)cc1 — within 1.5-fold, 4.33 µM
- O=C(Nc1ccc(-n2cc(-c3ccncc3)c(-c3ccc(O)c(Cl)c3)n2)cc1)Nc1cc(C(F)(F)F)cc(C(F)(F)F)c1 — 1.8-fold lower, 3.28 µM
- O=c1[nH]c2ccccc2cc1-c1nnc(Cc2ccccc2)o1 — 2.6-fold lower, 2.29 µM
- CCOC(=O)c1cc(C(=O)c2ccc(OC)c(OC)c2)n2c1ccc1ccc3cccnc3c12 — 2.1-fold lower, 2.83 µM
- Cc1cc(NC(=O)NC(=O)c2ccccc2NC(=O)CN(C)C)ccc1Oc1ncc(Br)cn1 — 1.7-fold lower, 3.62 µM
- C/C(=N/NC(N)=S)c1ccc(Nc2nc(SCC(C)C)nc(-c3ccc(F)cc3)c2C#N)cc1 — 5.7-fold lower, 1.06 µM
- COC(=O)c1ccc(NC(N)=NCCC(C)(C)c2ccc(C(F)(F)F)cc2)nc1 — 5.5-fold lower, 1.1 µM
- COc1cccc(-c2cc(=O)c3cc(N4CCN(C)CC4)ccc3[nH]2)c1 — within 1.5-fold, 6.03 µM
- C[C@]12CCc3nc(Nc4ccc(O)cc4)sc3C1=CC[C@@H]1[C@@H]2CC[C@]2(C)/C(=N/NC(N)=S)CC[C@@H]12 — 4.6-fold lower, 1.3 µM
- O=C(Nc1ccc(-n2cc(-c3ccncc3)c(-c3ccc(Cl)c(O)c3)n2)cc1)c1cc(C(F)(F)F)cc(C(F)(F)F)c1 — 2.8-fold lower, 2.16 µM
- N#CN1CC[C@H](C(=O)Nc2ncc(-c3ccccc3)s2)C1 — 34-fold lower, 0.177 µM
- COc1ccc([C@@]23Oc4cc(OC)cc(OC)c4[C@]2(O)[C@H](O)[C@H](C(=O)N(C)C)[C@H]3c2ccccc2)cc1 — 400-fold lower, 0.0151 µM
- CN(C)CCCOc1ccc(NC2=C(Cl)C(=O)C(Nc3ccc(OCCCN(C)C)cc3)=C(Cl)C2=O)cc1 — 17-fold lower, 0.36 µM
- Cc1ccc(C(=O)Nc2ccc(Oc3cc4cnn(C)c4cc3-c3cn[nH]c3)c(F)c2)c(=O)n1-c1ccc(F)cc1 — 1.9-fold lower, 3.2 µM
- CCN1C(=O)N(CC)C2C1NC(=S)N2/N=C/C=C/c1ccccc1 (stereo not given) — 110-fold lower, 0.0546 µM
- O=C(CI)NC(=O)NC(=O)NCc1ccccc1 — 2.8-fold lower, 2.12 µM
- Cn1cc(-c2ccc3ncc(-c4ccc(CC(=O)Nc5cc(C(C)(C)C)nn5C)cc4)cc3c2)cn1 — 7.5-fold lower, 0.799 µM
- COc1cc(OC)c(S(N)(=O)=O)cc1C(=O)/C=C/c1ccc(C)cc1 — 3.1-fold lower, 1.96 µM

Point of comparison: `C/C(=N/NC(N)=S)c1ccc(Nc2nc(SCC(C)C)nc(-c3ccc(F)cc3)c2C#N)cc1`, TGI 7.7 µM. Against it:
- O=C(Nc1nc2ccc(S(=O)(=O)Nc3ccc(C4(C(F)(F)F)CC4)cc3)cc2[nH]1)c1cnccn1 — within 1.5-fold, 5.74 µM
- O=C1Nc2ccc(-c3cccnc3)cc2/C1=C/c1cc(Br)c(O)c(Br)c1 — 2.1-fold higher, 16.1 µM
- CCc1ccc(NC(=O)N[C@@H](Cc2cccc(F)c2)C(=O)N[C@@H]2C(=O)N3CCC[C@H]3C(=O)N3CCCC[C@H]3C(=O)N[C@@H](C)C(=O)N3C[C@H](C)C[C@H]3C(=O)O[C@H]2C)c(F)c1 ({X8-CO}-[Phe(3-F)][aThr]P[Pip]A[Pro(4R-Me)]; ester 2-C) — 9.6-fold lower, 0.799 µM
- CCc1ccc(Oc2c(-c3ccc(OCc4ccc(Cl)cc4)cc3O)nn(C)c2C(F)(F)F)cc1 — 4.8-fold lower, 1.62 µM
- CC[n+]1c(-c2ccccc2)c2cc(N)ccc2c2ccc(N)cc21 — 13-fold lower, 0.609 µM
- NC(=O)c1nc(-c2c(F)cccc2Cl)oc1Nc1ccc(C(=O)N2CCOCC2)cc1 — 4.8-fold higher, 36.7 µM
- O=C(Nc1ccc(-n2cc(-c3ccncc3)c(-c3ccc(O)c(Cl)c3)n2)cc1)Nc1cc(C(F)(F)F)cc(C(F)(F)F)c1 — 1.7-fold higher, 13.2 µM
- O=c1[nH]c2ccccc2cc1-c1nnc(Cc2ccccc2)o1 — within 1.5-fold, 9.87 µM
- CCOC(=O)c1cc(C(=O)c2ccc(OC)c(OC)c2)n2c1ccc1ccc3cccnc3c12 — higher, > 100 µM
- Cc1cc(NC(=O)NC(=O)c2ccccc2NC(=O)CN(C)C)ccc1Oc1ncc(Br)cn1 — higher, > 100 µM
- COC(=O)c1ccc(NC(N)=NCCC(C)(C)c2ccc(C(F)(F)F)cc2)nc1 — 2.8-fold lower, 2.79 µM
- COc1cccc(-c2cc(=O)c3cc(N4CCN(C)CC4)ccc3[nH]2)c1 — higher, > 100 µM
- C[C@]12CCc3nc(Nc4ccc(O)cc4)sc3C1=CC[C@@H]1[C@@H]2CC[C@]2(C)/C(=N/NC(N)=S)CC[C@@H]12 — 2.5-fold lower, 3.02 µM
- O=C(Nc1ccc(-n2cc(-c3ccncc3)c(-c3ccc(Cl)c(O)c3)n2)cc1)c1cc(C(F)(F)F)cc(C(F)(F)F)c1 — within 1.5-fold, 7.6 µM
- N#CN1CC[C@H](C(=O)Nc2ncc(-c3ccccc3)s2)C1 — 18-fold lower, 0.423 µM
- COc1ccc([C@@]23Oc4cc(OC)cc(OC)c4[C@]2(O)[C@H](O)[C@H](C(=O)N(C)C)[C@H]3c2ccccc2)cc1 — 55-fold lower, 0.141 µM
- CN(C)CCCOc1ccc(NC2=C(Cl)C(=O)C(Nc3ccc(OCCCN(C)C)cc3)=C(Cl)C2=O)cc1 — 6.1-fold lower, 1.26 µM
- Cc1ccc(C(=O)Nc2ccc(Oc3cc4cnn(C)c4cc3-c3cn[nH]c3)c(F)c2)c(=O)n1-c1ccc(F)cc1 — higher, > 100 µM
- O=C(CI)NC(=O)NC(=O)NCc1ccccc1 — 1.7-fold lower, 4.66 µM
- Cn1cc(-c2ccc3ncc(-c4ccc(CC(=O)Nc5cc(C(C)(C)C)nn5C)cc4)cc3c2)cn1 — higher, > 20 µM
- COc1cc(OC)c(S(N)(=O)=O)cc1C(=O)/C=C/c1ccc(C)cc1 — within 1.5-fold, 7.03 µM

Reference: PubChem BioAssay (NCI)
